This is an account of results in US20030144295A1, “Treatment for ischemic stroke” (YAMANOUCHI PHARMACEUTICAL CO., LTD., priority 2001, published 2003).

The conditions of data set [1]: cited from earlier work.
In another data set the test system is AMPA receptor. Conditions: cited from earlier work.
Data set [2] concerns rat embolic stroke models. Briefly: Neurological symptoms (Bederson score) in rat embolic stroke models, Example 1. Conditions: Bederson score 0-3, 24 hours after blood clot injection; administration started 2 hours after clot; alteplase 10 mg/kg i.v., compound A 20 mg/kg/hour for 4 hours; n=8; control 2.5. Type of data set: in vivo, rat (male Sprague-Dawley). The procedure:
FIG. 2: Effect of a combined use of compound A with alteplase on neurological symptoms in rat embolic stroke models. Administration of zonampanel (20 mg/kg/hr; i.v. for 4 hours) and alteplase (10 mg/kg; i.v.; 10% of the total dose was subjected to an intravenous bolus administration while the remainder (90%) was subjected to an intravenous administration continuously over 1 hour) was initiated 2 hours after the injection of blood clot. After 24 hours from the injection of the blood clot, the neurological symptoms were observed. Data in the drawing show the data derived from each animal (n=8). The symbol * means a statistically significant difference from a control group or an alteplase-administered group (*p<0.05; Steel's test or Wilcoxon-test). […]
(§1) Evaluation of formation of cerebral embolism by injection of blood clot was carried out using a laser Doppler flowmetry (FloC1; Omegawave) and the cerebral blood flow decreased to a level of 30% or less of the blood clot value immediately after ischemia was taken as a positive evidence of embolism formation. […] The cerebral blood flow was monitored until 30 minutes after infusion of the blood clot and the blood flow of 30 minutes after ischemia was confirmed to-remain 50% or less than the value prior to the injection of the blood clot. […]

The test system of data set [3] is rat embolic stroke models. Briefly: Infarct volume (TTC staining) in rat embolic stroke models, Example 1. Type of data set: in vivo, rat (male Sprague-Dawley). The settings on record: 24 hours after blood clot injection; administration started 2 hours after clot; alteplase 10 mg/kg i.v., compound A 20 mg/kg/hour i.v. for 4 hours; n=8; control 361.2±20.9. The procedure:
FIG. 1: Effect of a combined use of compound A with alteplase on infarct volume in rat embolic stroke models. Administration of compound A (20 mg/kg/hr; i.v. for 4 hours) and alteplase (10 mg/kg; i.v.; 10% of the total dose was subjected to an intravenous bolus administration while the remainder (90%) was subjected to an intravenous administration continuously over 1 hour) was initiated 2 hours after the injection of blood clot. After 24 hours from the infusion of the blood clot, the brain was excised, sliced and stained with TTC. The data in the drawing show a mean value±standard error (n=8). The symbol * means a statistically significant difference from a control group or an alteplase-administered group (*p<0.05; Dunnett's test or t-test). […]
as §1

Turning to `O=C(O)Cn1c(=O)c(=O)[nH]c2cc([N+](=O)[O-])c(-n3ccnc3)cc21` [compound A, [7-(1H-imidazol-1-yl)-6-nitro-2,3-dioxo-3,4-dihydroquinoxalin-1(2H)-yl]acetic acid], the solubility in water entry in data set [1] is listed as “high”. Also, in the data set with AMPA receptor, the AMPA binding activity result was “strong and selective”. For the same compound, the “neurological symptom score (median value)” value in data set [2] worked out at 2. In addition, the “infarct volume (mean value±standard error)” value in data set [3] turned out to be 194.6±50.6 mm^3.
For the compound Alteplase [reference compound], the “infarct volume (mean value±standard error)” value in data set [3] was found to be 202.7±49.3 mm^3.
